Data on five compounds can be found in ChEMBL document CHEMBL3853308, “Condensation of Macrocyclic Polyketides Produced by Penicillium sp. DRF2 with Mercaptopyruvate Represents a New Fungal Detoxification Pathway” (J Nat Prod, 2016).

The nature of series [1]: Cytotoxicity against human MCF10A cells at 7.8 to 1000 uM after 24 hrs by XTT assay. The format is toxicity, cell-based. Particulars: mcf-10a. For orientation: Tetrazolium assays rely on reduction of a dye to a coloured formazan, in cell work by metabolically active cells.
Series [2] is described as follows: Cytotoxicity against human A549 cells after 24 hrs by XTT assay. In kind it is functional, cell-based. The following applies: A549, 24 h.
A short description of series [3]: Cytotoxicity against human HeLa cells after 24 hrs by XTT assay. The format is functional, cell-based.
Series [4] in a line: Cytotoxicity against human MCF7 cells after 24 hrs by XTT assay. The following applies: MCF7, 24 h.

One may read the IC50 as the midpoint of a concentration-inhibition curve.

For `C[C@H]1CCC[C@H]2O[C@H]2C(=O)c2c(O)cc(O)cc2CC(=O)O1`, in series [1], the Activity entry is given as “Non-Toxic”.
On to `COC(=O)[C@@]1(O)CS[C@H]2CCC[C@H](C)OC(=O)Cc3cc(O)cc(O)c3C(=O)[C@@H]21`, for which the Activity result in series [1] is given as “Non-Toxic”.
`COc1cccc2c1C(=O)c1c(O)c3c(c(O)c1C2=O)C[C@@](O)(C(=O)CO)C[C@@H]3O[C@H]1C[C@H](N)[C@H](O)[C@H](C)O1` [DOXORUBICIN]: the IC50 in series [2] was 190 nM; in series [3], 140 nM; in series [4], 120 nM.
Regarding `C[C@H]1CCC(=O)/C=C/C(=O)c2c(O)cc(O)cc2CC(=O)O1`, in series [1], the Activity entry is reported as “Non-Toxic”.
`C[C@H]1CCC[C@@H]2SC[C@](O)(C(=O)O)[C@H]2C(=O)c2c(O)cc(O)cc2CC(=O)O1`: the Activity entry in series [1] was “Non-Toxic”.
